Test results as given in patent US6121297A, “Cyanoguanidines as cell proliferation inhibitors” (Leo Pharmaceutical Products Ltd. A/S, priority 1997, dated 2000).

Experiments:
Format in all cases: cell-based
[1] = system: human breast cancer (MCF-7); assay: Inhibition of tumour cell proliferation in vitro, MCF-7 ([3H]thymidine incorporation); conditions: MCF7, human MCF-7 cells, 24 hours, DNA synthesis by [3H]thymidine incorporation
Protocol: (§1) The inhibition of tumour cell proliferation was studied using different types of human cancer cell lines. The cell lines under investigation were small cell lung carcinoma (NYH), non small cell lung carcinoma (NCI-H460), and breast cancer (MCF-7) using the following general procedure:
(§2) The cells were cultured in vitro for 24 hours in the presence of the compound under investigation. DNA synthesis was measured by incorporation of [3H]thymidine, and the median inhibitory concentrations (IC50) of the compounds were calculated.

[2] = system: human small cell lung carcinoma (NYH); assay: Inhibition of tumour cell proliferation in vitro, NYH ([3H]thymidine incorporation); conditions: human NYH cells, 24 hours, DNA synthesis by [3H]thymidine incorporation
Protocol: as §1, §2

[3] = system: human non small cell lung cancer (NCI-H460); assay: Inhibition of tumour cell proliferation in vitro, NCI-H460 ([3H]thymidine incorporation); conditions: human NCI-H460 cells, 24 hours, DNA synthesis by [3H]thymidine incorporation
Protocol: as §1, §2

| Structure (SMILES) | IC50 [1] | IC50 [2] | IC50 [3] |
| --- | --- | --- | --- |
| N#CN=C(NCCCCOc1ccccc1)Nc1ccncc1 [Prior art A, NCyano-N(4-phenoxybutyl)-N4-pyridylguanidine, reference compound] | 0.92 µM | 0.38 µM | > 1 µM |
| N#CN=C(NCCCCCOc1ccccc1)Nc1ccncc1 [Prior art B, NCyano-N(5-phenoxypentyl)-N4-pyridylguanidine, reference compound] | 0.25 µM | 0.045 µM | 0.067 µM |
| N#CNC(=Nc1ccncc1)NCCCCCCCCCOc1ccccc1 [Example No. 4, N-Cyano-N'-(9-phenoxynonyl)-N"-4-pyridylguanidine] | 0.018 µM | 0.0053 µM | 0.043 µM |
| N#CNC(=Nc1ccncc1)NCCCCCCCCCCOc1ccccc1 [Example No. 3, N-Cyano-N'-(10-phenoxydecyl)-N"-4pyridylguanidine] | 0.013 µM | 0.0059 µM | 0.049 µM |
| N#CNC(=Nc1ccncc1)NCCCCCCCCCCCOc1ccccc1 [Example No. 1, N-Cyano-N'-(11-phenoxyundecyl)-N"-4-pyridylguanidine] | 0.021 µM | 0.0045 µM |  |
